{"source": "patent US7026281B1", "about": "“Antagonistic analogs of GH-RH inhibiting IGF-I and -II” (The Administrators of the Tulane Educational Fund, priority 1998, dated 2006)", "key": {"[1]": {"tested_on": "hGH-RH(1–29)NH2 induced GH release", "assay": "Inhibition of GH release in superfused rat pituitary system", "assay_type": "cell-based", "details": "for Inhibition of GH release (%) 30 min / Inhibition of GH release (%) 60 min / Inhibition of GH release (%) 90 min / Inhibition of GH release (%) 120 min / Inhibition of GH release (%) 0 min: antagonist 30 nM; for Inhibition of GH release (%) 30 min: 1 nM hGH-RH(1–29)NH2 30 min later; for Inhibition of GH release (%) 60 min: 1 nM hGH-RH(1–29)NH2 60 min later; for Inhibition of GH release (%) 90 min: 1 nM hGH-RH(1–29)NH2 90 min later; for Inhibition of GH release (%) 120 min: 1 nM hGH-RH(1–29)NH2 120 min later; for Inhibition of GH release (%) 0 min: 1 nM hGH-RH(1–29)NH2 at 0 min", "in_short": "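Superfused rat pituitary cells preincubated 9 min with peptide, then challenged for 3 min with 1 nM hGH-RH(1–29)NH2 at 0, 30, 60, 90 and 120 min. Rat GH measured by double-antibody RIA; net integral GH responses expressed as percent of the original 1 nM GH-RH-induced response.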"}, "[2]": {"tested_on": "GH release stimulated by hGH-RH(1–29)NH2", "assay": "In vivo inhibition of serum GH response in rats", "parameters": "species or system rat", "details": "for Inhibition of the GH release stimulated by hGH-RH(1–29)NH2 (in words): 80 μg/kg i.v., rats", "in_short": "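Male Sprague-Dawley rats (200–250 g) under Nembutal received antagonist at 80 μg/kg i.v., then GH-RH(1–29)NH2 at 3 μg/kg after 5, 15, 30 or 60 min; controls received vehicle (5.5% mannitol). GH was measured by RIA before antagonist and 5 min after GH-RH, and inhibition was calculated as […].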"}, "[3]": {"biological_target": "T1, rat pituitary GH-RH receptors (Rattus norvegicus, UniProt Q02644)", "T1 construct": "from tissue; host or cells: anterior pituitary of male Sprague-Dawley rats, crude membrane homogenates", "T1 sequence (Q02644 23-464)": "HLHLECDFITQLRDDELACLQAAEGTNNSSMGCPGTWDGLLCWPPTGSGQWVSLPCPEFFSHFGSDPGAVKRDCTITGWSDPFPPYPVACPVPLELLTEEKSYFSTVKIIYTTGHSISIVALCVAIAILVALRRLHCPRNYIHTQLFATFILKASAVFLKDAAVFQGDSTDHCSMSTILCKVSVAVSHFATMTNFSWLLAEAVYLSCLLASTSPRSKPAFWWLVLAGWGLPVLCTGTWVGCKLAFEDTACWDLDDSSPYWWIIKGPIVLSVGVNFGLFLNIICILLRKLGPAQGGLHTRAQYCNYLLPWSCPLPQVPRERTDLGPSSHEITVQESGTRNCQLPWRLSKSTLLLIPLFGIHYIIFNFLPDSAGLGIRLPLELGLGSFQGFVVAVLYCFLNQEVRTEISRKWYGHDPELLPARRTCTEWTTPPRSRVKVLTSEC", "assay": "GH-RH radioreceptor binding assay, rat anterior pituitary membrane homogenates", "details": "for Ki: competition with [His1,125I-Tyr10,Nle27]hGH-RH(1–32)NH2; for R.A. (relative affinity compared to Standard antagonist): ratio of Ki values", "in_short": "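Antagonists competed with [His^1,^125I-Tyr^10,Nle^27]hGH-RH(1–32)NH2 for binding to crude anterior pituitary membranes from male Sprague-Dawley rats, with γ-counting of the pellet. Ki came from Munson–Rodbard analysis. Relative affinity is the Ki of the test antagonist divided by the Ki of standard [Ac-Tyr^1,D-Arg^2]hGH-RH(1–29)NH2.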"}, "[4]": {"details": "antagonist 80 μg/kg i.v. 5 min before GH-RH"}, "[5]": {"details": "antagonist 80 μg/kg i.v. 15 min before GH-RH"}, "[6]": {"details": "antagonist 80 μg/kg i.v. 15 min before GH-RH 3 μg/kg"}, "[7]": {"details": "antagonist 80 μg/kg i.v. 30 min before GH-RH"}, "[8]": {"details": "antagonist 80 μg/kg i.v. 30 min before GH-RH 3 μg/kg"}, "[9]": {"details": "antagonist 80 μg/kg i.v. 60 min before GH-RH"}, "[10]": {"details": "antagonist 80 μg/kg i.v. 60 min before GH-RH 3 μg/kg"}, "[11]": {"details": "rGH=GHblood1/GHblood0, antagonist 80 μg/kg i.v. 5 min before GH-RH 3 μg/kg"}}, "note": "Square brackets hold non-standard residues; d marks the D form. Peptide text beside a SMILES is read from it. * marks the point of attachment. Phe(4-Cl) = N[C@@H](Cc1ccc(Cl)cc1)C(=O)O; hArg = N=C(N)NCCCC[C@H](N)C(=O)O; Nle = CCCC[C@H](N)C(=O)O; Abu = CC[C@H](N)C(=O)O; PhAc = O=C(Cc1ccccc1)*", "data": [{"compound": "CCCC[C@H](NC(=O)[C@@H](NC(=O)[C@H](CC(=O)O)NC(=O)[C@H](CCC(N)=O)NC(=O)[C@H](CC(C)C)NC(=O)[C@H](CC(C)C)NC(=O)[C@H](CCCCN)NC(=O)[C@H](CCCNC(=N)N)NC(=O)[C@H](C)NC(=O)[C@H](CO)NC(=O)[C@H](CC(C)C)NC(=O)[C@H](CCC(N)=O)NC(=O)[C@H](CC)NC(=O)[C@H](CC(C)C)NC(=O)[C@@H](NC(=O)[C@H](CCCCN)NC(=O)[C@H](CCCNC(=N)N)NC(=O)[C@H](Cc1ccc(O)cc1)NC(=O)[C@H](CCCNC(=N)N)NC(=O)[C@H](CC(N)=O)NC(=O)[C@@H](NC(=O)[C@H](Cc1ccc(Cl)cc1)NC(=O)[C@@H](NC(=O)[C@H](C)NC(=O)[C@H](CC(=O)O)NC(=O)[C@@H](CCCNC(=N)N)NC(=O)[C@H](Cc1ccc(O)cc1)NC(=O)Cc1ccccc1)[C@@H](C)CC)[C@@H](C)O)C(C)C)[C@@H](C)CC)C(=O)N[C@H](CCCNC(=N)N)C(=O)N[C@@H](CCCCNC(=N)N)C(N)=O", "note": "[Peptide 1, [PhAc^0, D-Arg^2, Phe(pCl)^6, Arg^9, Abu^15, Nle^27, D-Arg^28, Har^29]hGH-RH(1–29)NH2] (PhAc-Y[dR]DAI[Phe(4-Cl)]TNRYRKVL[Abu]QLSARKLLQDI[Nle][dR][hArg]-NH2)", "values": [{"measurement": "Inhibition of GH release (%) 30 min", "setting": "[1]", "result": 100, "unit": "%"}, {"measurement": "Inhibition of GH release (%) 60 min", "setting": "[1]", "result": 100, "unit": "%"}, {"measurement": "Inhibition of GH release (%) 90 min", "setting": "[1]", "result": 100, "unit": "%"}, {"measurement": "Inhibition of GH release (%) 120 min", "setting": "[1]", "result": 94, "unit": "%"}, {"measurement": "Inhibition of GH release (%) 0 min", "setting": "[1]", "result": 100, "unit": "%"}, {"measurement": "Duration of complete inhibition of the GH-RH induced GH release", "setting": "[1]; standard test conditions", "result": 90, "unit": "min"}, {"measurement": "Inhibition of the GH release stimulated by hGH-RH(1–29)NH2 (in words)", "setting": "[2]", "result": "strong and long-lasting inhibition"}, {"measurement": "Relative inhibition % of GH response", "setting": "[2]; [4]", "result": 95, "unit": "%"}, {"measurement": "Relative inhibition % of GH response", "setting": "[2]; [5]", "result": 68, "unit": "%"}, {"measurement": "GH response mean ± S.E.M.", "setting": "[2]; [6]", "result": "1.87 ± 0.13"}, {"measurement": "Relative inhibition % of GH response", "setting": "[2]; [7]", "result": 64, "unit": "%"}, {"measurement": "GH response mean ± S.E.M.", "setting": "[2]; [8]", "result": "1.97 ± 0.16"}, {"measurement": "Relative inhibition % of GH response", "setting": "[2]; [9]", "result": "−8", "unit": "%"}, {"measurement": "GH response mean ± S.E.M.", "setting": "[2]; [10]", "result": "3.89 ± 0.65"}, {"measurement": "GH response mean ± S.E.M.", "setting": "[2]; [11]", "result": "1.13 ± 0.13"}, {"measurement": "Ki", "setting": "[3]", "result": 0.044, "unit": "nM"}, {"measurement": "R.A. (relative affinity compared to Standard antagonist)", "setting": "[3]", "result": 67}]}, {"compound": "CCCC[C@H](NC(=O)[C@@H](NC(=O)[C@H](CC(=O)O)NC(=O)[C@H](CCC(N)=O)NC(=O)[C@H](CC(C)C)NC(=O)[C@H](CC(C)C)NC(=O)[C@H](CCCCN)NC(=O)[C@H](CCCNC(=N)N)NC(=O)[C@H](C)NC(=O)[C@H](CO)NC(=O)[C@H](CC(C)C)NC(=O)[C@H](CCC(N)=O)NC(=O)[C@H](CC)NC(=O)[C@H](CC(C)C)NC(=O)[C@@H](NC(=O)[C@H](CCCCN)NC(=O)[C@H](CCCNC(=N)N)NC(=O)[C@H](Cc1ccc(OC)cc1)NC(=O)[C@H](CCCCNC(=N)N)NC(=O)[C@H](CC(N)=O)NC(=O)[C@@H](NC(=O)[C@H](Cc1ccc(Cl)cc1)NC(=O)[C@@H](NC(=O)[C@H](C)NC(=O)[C@H](CC(=O)O)NC(=O)[C@@H](CCCNC(=N)N)NC(=O)[C@H](Cc1ccc(O)cc1)NC(=O)Cc1ccccc1)[C@@H](C)CC)[C@@H](C)O)C(C)C)[C@@H](C)CC)C(=O)N[C@H](CCCNC(=N)N)C(=O)N[C@@H](CCCCNC(=N)N)C(N)=O", "note": "[Peptide 3, [PhAc^0, D-Arg^2, Phe(pCl)^6, Har^9, Tyr(Me)^10, Abu^15, Nle^27, D-Arg^28, Har^29]hGH-RH(1–29)NH2] (PhAc-Y[dR]DAI[Phe(4-Cl)]TN[hArg]Y(Me)RKVL[Abu]QLSARKLLQDI[Nle][dR][hArg]-NH2)", "values": [{"measurement": "Inhibition of GH release (%) 30 min", "setting": "[1]", "result": 98, "unit": "%"}, {"measurement": "Inhibition of GH release (%) 60 min", "setting": "[1]", "result": 91, "unit": "%"}, {"measurement": "Inhibition of GH release (%) 90 min", "setting": "[1]", "result": 92, "unit": "%"}, {"measurement": "Inhibition of GH release (%) 120 min", "setting": "[1]", "result": 87, "unit": "%"}, {"measurement": "Inhibition of GH release (%) 0 min", "setting": "[1]", "result": 85, "unit": "%"}, {"measurement": "Inhibition of the GH release stimulated by hGH-RH(1–29)NH2 (in words)", "setting": "[2]", "result": "strong and long-lasting inhibition"}, {"measurement": "Relative inhibition % of GH response", "setting": "[2]; [4]", "result": 68, "unit": "%"}, {"measurement": "Relative inhibition % of GH response", "setting": "[2]; [5]", "result": 61, "unit": "%"}, {"measurement": "GH response mean ± S.E.M.", "setting": "[2]; [6]", "result": "3.63 ± 0.80"}, {"measurement": "Relative inhibition % of GH response", "setting": "[2]; [7]", "result": 41, "unit": "%"}, {"measurement": "GH response mean ± S.E.M.", "setting": "[2]; [8]", "result": "4.89 ± 0.95"}, {"measurement": "Relative inhibition % of GH response", "setting": "[2]; [9]", "result": 34, "unit": "%"}, {"measurement": "GH response mean ± S.E.M.", "setting": "[2]; [10]", "result": "5.36 ± 0.63"}, {"measurement": "GH response mean ± S.E.M.", "setting": "[2]; [11]", "result": "3.01 ± 0.41"}, {"measurement": "Ki", "setting": "[3]", "result": 0.068, "unit": "nM"}, {"measurement": "R.A. (relative affinity compared to Standard antagonist)", "setting": "[3]", "result": 43}]}]}
